Values of other authors in US5385929A, “[(Hydroxyphenylamino) carbonyl] pyrroles” (Warner-Lambert Company, priority 1994, dated 1995).

Tested on: biosynthesis of cholesterol
Conditions: qualitative; described in U.S. Pat. No. 5,273,995

SMILES: CC(C)c1c(C(=O)Nc2ccccc2)c(-c2ccccc2)c(-c2ccc(F)cc2)n1CC[C@@H](O)C[C@@H](O)CC(=O)O [Compound of Patent 5,273,995 (open form), [R-(R*,R*)]-2-(4-fluorophenyl)-β,δ-dihydroxy-5-(1-methylethyl)-3-phenyl-4-[(phenylamino)carbonyl]-1H-pyrrole-1-heptanoic acid]
- activity as a hypocholesterolemic agent: particularly active as a hypocholesterolemic agent
